{"source": "patent US20050271630A1", "about": "“Method for treating cancer” (MEDINET Co., Ltd., priority 2004, published 2005)", "key": {"[1]": {"tested_on": "GIST (gastrointestinal stromal tumors)", "conditions": "for Side effects: imatinib mesylate 200 mg/day"}, "[2]": {"tested_on": "non-small cell lung carcinoma", "test": "Activated autologous lymphocyte therapy combined with gefitinib or conventional chemotherapy, 15 cases at Seta Clinic", "format": "in vivo, human", "experimental": "Next, studies were conducted for comparing a combination therapy with a conventional chemotherapy other than gefitinib and the method of the present invention.\nThe response ratio was 46.7%. […] The effective ratio including this was 53.3%. The highest number of administrations was 35, and 10.4 times of treatments on average were conducted."}, "[3]": {"tested_on": "non-small cell lung carcinoma"}, "[4]": {"conditions": "gefitinib alone, 104 cases, Phase 2 study; cited from earlier work"}, "[5]": {"tested_on": "lung carcinoma (adenocarcinoma)", "test": "Single case: CD3-LAK plus IRESSA (gefitinib), person", "conditions": "for Response at examination: gefitinib 250 mg/day + CD3-LAK"}, "[6]": {"conditions": "7 chemotherapy / 8 gefitinib cases"}, "[7]": {"conditions": "7 conventional chemotherapy cases / 8 gefitinib cases, with activated autologous lymphocyte therapy"}, "[8]": {"conditions": "of 18 cases, gefitinib + CD3-LAK"}, "[9]": {"conditions": "of 18 cases, gefitinib + activated autologous lymphocyte therapy"}}, "note": "Where “and” joins values, the source holds several entries; their conditions need not be identical. Equal values may be shown once. Entries after “also recorded” stand apart in the source; their conditions may differ. Where a name gives a salt, the structure may show the parent alone. Read-outs that look alike come from different tables or passages of the source.", "data": [{"smiles": "Cc1ccc(NC(=O)c2ccc(CN3CCN(C)CC3)cc2)cc1Nc1nccc(-c2cccnc2)n1", "note": "[imatinib mesylate]", "values": [{"measurement": "Duration of partial response since the start of the combination therapy", "setting": "[1]; Patient 2", "result": 21, "unit": "months"}, {"measurement": "Increase in liver enzyme levels, GOT", "setting": "[1]; Patient 2", "result": 58, "unit": "U/ml"}, {"measurement": "Increase in liver enzyme levels, GPT", "setting": "[1]; Patient 2", "result": 43, "unit": "U/ml"}, {"measurement": "Side effects", "setting": "[1]; Patient 2", "result": "itching with eczema of the face and limbs; also recorded: stomach discomfort; also recorded: diarrhea"}, {"measurement": "CA12-5 level", "setting": "[1]; Patient 2, three months after starting the therapy, 151 U/ml at start", "result": 26, "unit": "U/ml"}, {"measurement": "Time without tumor progression since start of combination therapy", "setting": "[1]; Patient 3", "result": 25, "unit": "months"}, {"measurement": "Side effects", "setting": "[1]; Patient 3, combination therapy", "result": "diarrhea"}, {"measurement": "Side effects at the time of administration", "setting": "[1]; Patient 3, imatinib mesylate 100 to 300 mg per day oral", "result": "side effects on their digestive organs"}, {"measurement": "Change of foci", "setting": "[1]; Patient 3, one month after the MRI (one year and two months)", "result": "decreased slightly"}, {"measurement": "Interpretation of PET", "setting": "[1]; Patient 3, one year and five months after starting the therapy", "result": "no extraordinary accumulation"}, {"measurement": "Size of foci in MRI", "setting": "[1]; Patient 3, one year and one month after starting the combination therapy, two foci", "result": "1.1 cm and 0.6 cm"}, {"measurement": "Tumor progression", "setting": "[1]; Patient 3, since the combination therapy was started", "result": "had not progressed"}]}, {"smiles": "COc1cc2ncnc(Nc3ccc(F)c(Cl)c3)c2cc1OCCCN1CCOCC1", "note": "[gefitinib]", "values": [{"measurement": "Evaluation: Effective (percent)", "setting": "[2]; [6]", "result": "(62.5%)"}, {"measurement": "Evaluation: No effect (percent)", "setting": "[2]; [6]", "result": "(37.5%)"}, {"measurement": "The number of cases, Complete response", "setting": "[2]; [7]", "result": 0, "unit": "cases"}, {"measurement": "The number of cases, Long no change", "setting": "[2]; [7]", "result": 0, "unit": "cases"}, {"measurement": "The number of cases, No change", "setting": "[2]; [7]", "result": 3, "unit": "cases"}, {"measurement": "The number of cases, Partial response", "setting": "[2]; [7]", "result": 5, "unit": "cases"}, {"measurement": "The number of cases, Progressive disease", "setting": "[2]; [7]", "result": 0, "unit": "cases"}, {"measurement": "Evaluation: Effective (number of cases)", "setting": "[2]; complete + partial response + long no change, 7 chemotherapy / 8 gefitinib cases", "result": "Effective 5 cases"}, {"measurement": "Cases still alive", "setting": "[2]; gefitinib group (cases 8-15)", "result": 7, "unit": "cases"}, {"measurement": "Longest period of survival confirmed", "setting": "[2]; gefitinib group (cases 8-15)", "result": 743, "unit": "days"}, {"measurement": "Outcome at the end", "setting": "[2]; individual cases 1-15, at end of trace period", "result": "Alive"}, {"measurement": "Evaluation: No effect (number of cases)", "setting": "[2]; no change + progressive disease, 7 chemotherapy / 8 gefitinib cases", "result": 3, "unit": "cases"}, {"measurement": "Evaluation: No effect (percent)", "setting": "[3]; 18 cases", "result": "(38.9%)"}, {"measurement": "New side effect caused by the combined use of the activated autologous lymphocytes", "setting": "[3]; 18 cases, gefitinib + CD3-LAK", "result": "no new side effect"}, {"measurement": "Side effects: diarrhea, percent", "setting": "[3]; 18 cases, gefitinib + CD3-LAK", "result": 33, "unit": "%"}, {"measurement": "Side effects: nausea, percent", "setting": "[3]; 18 cases, gefitinib + CD3-LAK", "result": 17, "unit": "%"}, {"measurement": "Side effects: skin symptoms (eruption and dry skin), percent", "setting": "[3]; 18 cases, gefitinib + CD3-LAK", "result": 89, "unit": "%"}, {"measurement": "Outcome at the end", "setting": "[3]; individual cases 1-18, at end of trace period, gefitinib 250 mg/day + CD3-LAK", "result": "Alive (17×) and Dead"}, {"measurement": "Evaluation: Effective (number of cases)", "setting": "[3]; of 18 cases, complete + partial response", "result": "Effective 11 cases"}, {"measurement": "Side effects: diarrhea, cases", "setting": "[3]; [8]", "result": 6, "unit": "cases"}, {"measurement": "Side effects: nausea, cases", "setting": "[3]; [8]", "result": 3, "unit": "cases"}, {"measurement": "Side effects: skin symptoms (eruption and dry skin), cases", "setting": "[3]; [8]", "result": 16, "unit": "cases"}, {"measurement": "The number of cases, No change", "setting": "[3]; [9]", "result": 6, "unit": "cases"}, {"measurement": "The number of cases, Partial response", "setting": "[3]; [9]", "result": 11, "unit": "cases"}, {"measurement": "The number of cases, Progressive disease", "setting": "[3]; [9]", "result": 1, "unit": "cases"}, {"measurement": "Evaluation: No effect (number of cases)", "setting": "[3]; of 18 cases, no change + progressive disease", "result": "No effect 7 cases"}, {"measurement": "Response ratio", "setting": "[4]", "result": 18, "unit": "%"}, {"measurement": "Lesioned site in CT image", "setting": "[5]; CT at examination on May 9 versus start of combination therapy (FIGS. 2 and 3)", "result": "almost disappeared"}, {"measurement": "Response at examination", "setting": "[5]; examination on Feb. 13, 2003, therapy started Oct. 2002", "result": "considerable response"}, {"measurement": "Response at examination", "setting": "[5]; examination on May 9 (2003)", "result": "remarkable response"}]}]}
